# In the NIST ThermoML archive (doi:10.1021/je700316s):
# Numbers after ± are expanded uncertainties.
# Details: Liquid; for mass density: 298.15 K, 101.33 kPa, Pycnometric method
# [1] = Ebulliometric method (Recirculating still)
compound,measurement,setting,value
CCCCO [butan-1-ol],mass density,,805.8 ± 0.7 kg/m3
same,Normal boiling temperature,[1],117.70 ± 0.2 °C
CCO [ethanol],mass density,,785.2 ± 0.7 kg/m3
same,Normal boiling temperature,,78.29 ± 0.2 °C
CCCO [propan-1-ol],mass density,,799.6 ± 0.7 kg/m3
same,Normal boiling temperature,[1],97.06 ± 0.2 °C
CC(C)O [propan-2-ol],mass density,,780.8 ± 0.7 kg/m3
same,Normal boiling temperature,[1],82.2 ± 0.2 °C
